Source: patent US20250282827A1, “LIPIDATED POLYMYXIN ANALOGUES” (priority 2021, published 2025)
In brackets after ≈: the same amount, converted by molar mass. Positions of bridges follow the written chain, without caps; N, C: chain ends. Non-standard residues stand in square brackets, D forms with d. Residues, ends and D or L forms follow the SMILES beside them. *: point of attachment. Ethyl(2-decanoyloxy) = CCCCCCCCCC(=O)OCC*; Ethyl(2-butanoyloxy) = CCCC(=O)OCC*; Ethyl(2-propionyloxy) = CCC(=O)OCC*; Ethyl(2-OPiv) = CC(C)(C)C(=O)OCC*; hCys = N[C@@H](CCS)C(=O)O; Octanoyl = CCCCCCCC(=O)*; Dab = NCC[C@H](N)C(=O)O; Dap = NC[C@H](N)C(=O)O; Mpa = O=C(O)CCS

Key:
A. baumannii ATCC 19606 = format: cell-based, Acinetobacter baumannii; conditions: ATCC 19606
Description: (§1) All 81 compounds prepared in Examples 2 and 3 underwent screening against a panel of Gram-negative bacterium to assess their ability to inhibit bacterial growth. […] The median value is presented.

E. coli ATCC MS8345 = format: cell-based, Escherichia coli; conditions: ATCC MS8345
Description: as §1
Expansion of the polymyxin macrocycle by substituting […]) offered little advantage in antimicrobial activity but was generally well tolerated although for A. baumanni and P. aeruginosa this was detrimental.

P. aeruginosa ATCC 27853 = format: cell-based, Pseudomonas aeruginosa; conditions: ATCC 27853
Description: as §1

E. coli ATCC 25922 = format: cell-based, Escherichia coli; conditions: ATCC 25922
Description: as §1

[1] = test system: K. pneumoniae ATCC MS6671; format: cell-based, Klebsiella pneumoniae; conditions: ATCC MS6671
Description: as §1

K. pneumoniae ATCC 33495 = format: cell-based, Klebsiella pneumoniae; conditions: ATCC 33495
Description: as §1

[2] = test system: K. pneumoniae ATCC 700603; format: cell-based, Klebsiella pneumoniae; conditions: ATCC 700603
Description: as §1

Row | SMILES | MIC A. baumannii ATCC 19606 (A. baumannii ATCC 19606) [µg/mL] | MIC E. coli ATCC MS8345 (E. coli ATCC MS8345) [µg/mL] | MIC P. aeruginosa ATCC 27853 (P. aeruginosa ATCC 27853) [µg/mL] | MIC E. coli ATCC 25922 (E. coli ATCC 25922) [µg/mL] | MIC K. pneumoniae ATCC MS6671 [1] [µg/mL] | MIC K. pneumoniae ATCC 33495 (K. pneumoniae ATCC 33495) [µg/mL] | MIC K. pneumoniae ATCC 700603 [2] [µg/mL] | activity against E. coli (MIC) (E. coli ATCC 25922) [µg/mL]
1 | CCCCCCCCCC(=O)OCCSC[C@H](N)C(=O)N[C@@H](CCN)C(=O)N[C@H](C(=O)N[C@@H](CCN)C(=O)N[C@H]1CCCCNC(=O)[C@H]([C@@H](C)O)NC(=O)[C@H](CCN)NC(=O)[C@H](CCN)NC(=O)[C@H](CC(C)C)NC(=O)[C@@H](Cc2ccccc2)NC(=O)[C@H](CCN)NC1=O)[C@@H](C)O [Compound 25] (H-C(Ethyl(2-decanoyloxy))[Dab]T[Dab]K[Dab][dF]L[Dab][Dab]T; lactam 5-C) | >32 | 16 to 32 | 0.5 (≈ 0.359 µM) | 2 (≈ 1.44 µM) | >32 | 0.5 (≈ 0.359 µM) | 2 (≈ 1.44 µM) | 
2 | CCC(=O)OCCSCC[C@H](N)C(=O)N[C@H](C(=O)N[C@@H](CN)C(=O)N[C@H]1CCNC(=O)[C@H]([C@@H](C)O)NC(=O)[C@H](CCN)NC(=O)[C@H](CCN)NC(=O)[C@H](CC(C)C)NC(=O)[C@@H](Cc2ccccc2)NC(=O)[C@H](CCN)NC1=O)[C@@H](C)O [Compound 84] (H-[hCys](Ethyl(2-propionyloxy))T[Dap][Dab][Dab][dF]L[Dab][Dab]T; lactam 4-C) |  |  |  | 32 (≈ 27.4 µM) |  |  |  | 
3 | CCC(=O)OCCSC[C@H](N)C(=O)N[C@H](C(=O)N[C@H](CO)C(=O)N[C@H]1CCNC(=O)[C@H]([C@@H](C)O)NC(=O)[C@H](CCN)NC(=O)[C@H](CCN)NC(=O)[C@H](CC(C)C)NC(=O)[C@@H](Cc2ccccc2)NC(=O)[C@H](CCN)NC1=O)[C@@H](C)O [Compound 85] (H-C(Ethyl(2-propionyloxy))T[dS][Dab][Dab][dF]L[Dab][Dab]T; lactam 4-C) |  |  |  | >128 |  |  |  | 
4 | CCC(=O)OCCSC[C@@H](N)C(=O)N[C@H](C(=O)N[C@H](CO)C(=O)N[C@H]1CCNC(=O)[C@H]([C@@H](C)O)NC(=O)[C@H](CCN)NC(=O)[C@H](CCN)NC(=O)[C@H](CC(C)C)NC(=O)[C@@H](Cc2ccccc2)NC(=O)[C@H](CCN)NC1=O)[C@@H](C)O [Compound 86] (H-[dC](Ethyl(2-propionyloxy))T[dS][Dab][Dab][dF]L[Dab][Dab]T; lactam 4-C) |  |  |  | 2 (≈ 1.73 µM) |  |  |  | 
5 | CCC(=O)OCCSCCC(=O)N[C@H](C(=O)N[C@H](CO)C(=O)N[C@H]1CCNC(=O)[C@H]([C@@H](C)O)NC(=O)[C@H](CCN)NC(=O)[C@H](CCN)NC(=O)[C@H](CC(C)C)NC(=O)[C@@H](Cc2ccccc2)NC(=O)[C@H](CCN)NC1=O)[C@@H](C)O [Compound 87] ([Mpa](Ethyl(2-propionyloxy))T[dS][Dab][Dab][dF]L[Dab][Dab]T; lactam 4-C) |  |  |  | 16 (≈ 14.1 µM) |  |  |  | 
6 | CCC(=O)OCCSCC[C@H](N)C(=O)N[C@H](C(=O)N[C@H](CO)C(=O)N[C@H]1CCNC(=O)[C@H]([C@@H](C)O)NC(=O)[C@H](CCN)NC(=O)[C@H](CCN)NC(=O)[C@H](CC(C)C)NC(=O)[C@@H](Cc2ccccc2)NC(=O)[C@H](CCN)NC1=O)[C@@H](C)O [Compound 88] (H-[hCys](Ethyl(2-propionyloxy))T[dS][Dab][Dab][dF]L[Dab][Dab]T; lactam 4-C) |  |  |  | >64 |  |  |  | 
7 | CCCC(=O)OCCSC[C@@H](N)C(=O)N[C@H](C(=O)N[C@@H](CCN)C(=O)N[C@H]1CCNC(=O)[C@H]([C@@H](C)O)NC(=O)[C@H](CCN)NC(=O)[C@H](CCN)NC(=O)[C@H](CC(C)C)NC(=O)[C@@H](Cc2ccccc2)NC(=O)[C@H](CCN)NC1=O)[C@@H](C)O [Compound 89] (H-[dC](Ethyl(2-butanoyloxy))T[Dab][Dab][Dab][dF]L[Dab][Dab]T; lactam 4-C) | 4 (≈ 3.39 µM) | 32 (≈ 27.1 µM) | 2 (≈ 1.69 µM) |  | >32 | 1 (≈ 0.847 µM) | 1 (≈ 0.847 µM) | 
8 | CCCCCCCC(=O)N[C@@H](CCN)C(=O)N[C@H](C(=O)N[C@@H](CCN)C(=O)N[C@H]1CCNC(=O)[C@H]([C@@H](C)O)NC(=O)[C@H](CCN)NC(=O)[C@H](CCN)NC(=O)[C@H](CC(C)C)NC(=O)[C@@H](Cc2ccccc2)NC(=O)[C@H](CCN)NC1=O)[C@@H](C)O [polymyxin B3, reference compound] (Octanoyl-[Dab]T[Dab][Dab][Dab][dF]L[Dab][Dab]T; lactam 4-C (inferred); N-terminus assumed) |  |  |  |  |  |  |  | 0.25

Second part, the molecule after the results:

Row | MIC A. baumannii ATCC 19606 (A. baumannii ATCC 19606) [µg/mL] | MIC E. coli ATCC MS8345 (E. coli ATCC MS8345) [µg/mL] | MIC P. aeruginosa ATCC 27853 (P. aeruginosa ATCC 27853) [µg/mL] | MIC E. coli ATCC 25922 (E. coli ATCC 25922) [µg/mL] | MIC K. pneumoniae ATCC MS6671 [1] [µg/mL] | MIC K. pneumoniae ATCC 33495 (K. pneumoniae ATCC 33495) [µg/mL] | MIC K. pneumoniae ATCC 700603 [2] [µg/mL] | activity against E. coli (MIC) (E. coli ATCC 25922) [µg/mL] | SMILES
9 | >32 | >32 | >32 | 4 (≈ 3.09 µM) | >32 | 4 (≈ 3.09 µM) | >32 |  | CCC(=O)OCCSC[C@H](N)C(=O)N[C@@H](CCN)C(=O)N[C@H](C(=O)N[C@@H](CCN)C(=O)N[C@H]1CCCCNC(=O)[C@H]([C@@H](C)O)NC(=O)[C@H](CCN)NC(=O)[C@H](CCN)NC(=O)[C@H](CC(C)C)NC(=O)[C@@H](Cc2ccccc2)NC(=O)[C@H](CCN)NC1=O)[C@@H](C)O [Compound 23] (H-C(Ethyl(2-propionyloxy))[Dab]T[Dab]K[Dab][dF]L[Dab][Dab]T; lactam 5-C)
10 | >32 | >32 | >32 | 2 (≈ 1.53 µM) | >32 | 1 (≈ 0.764 µM) |  |  | CCCC(=O)OCCSC[C@H](N)C(=O)N[C@@H](CCN)C(=O)N[C@H](C(=O)N[C@@H](CCN)C(=O)N[C@H]1CCCCNC(=O)[C@H]([C@@H](C)O)NC(=O)[C@H](CCN)NC(=O)[C@H](CCN)NC(=O)[C@H](CC(C)C)NC(=O)[C@@H](Cc2ccccc2)NC(=O)[C@H](CCN)NC1=O)[C@@H](C)O [Compound 24] (H-C(Ethyl(2-butanoyloxy))[Dab]T[Dab]K[Dab][dF]L[Dab][Dab]T; lactam 5-C)
11 | >32 | >32 | >32 | 1 (≈ 0.756 µM) | >32 | 0.5 (≈ 0.378 µM) | 16 (≈ 12.1 µM) |  | CC(C)C[C@@H]1NC(=O)[C@@H](Cc2ccccc2)NC(=O)[C@H](CCN)NC(=O)[C@@H](NC(=O)[C@H](CCN)NC(=O)[C@@H](NC(=O)[C@H](CCN)NC(=O)[C@@H](N)CSCCOC(=O)C(C)(C)C)[C@@H](C)O)CCCCNC(=O)[C@H]([C@@H](C)O)NC(=O)[C@H](CCN)NC(=O)[C@H](CCN)NC1=O [Compound 26] (H-C(Ethyl(2-OPiv))[Dab]T[Dab]K[Dab][dF]L[Dab][Dab]T; lactam 5-C)
12 | >32 |  | 2 (≈ 1.58 µM) | 2 (≈ 1.58 µM) | >32 | 2 (≈ 1.58 µM) | 4 (≈ 3.16 µM) |  | CCC(=O)OCCSC[C@@H](N)C(=O)N[C@@H](CCN)C(=O)N[C@H](C(=O)N[C@@H](CCN)C(=O)N[C@H]1CCNC(=O)[C@H]([C@@H](C)O)NC(=O)[C@H](CCN)NC(=O)[C@H](CCN)NC(=O)[C@H](CC(C)C)NC(=O)[C@@H](Cc2ccccc2)NC(=O)[C@H](CCN)NC1=O)[C@@H](C)O [Compound 58] (H-[dC](Ethyl(2-propionyloxy))[Dab]T[Dab][Dab][Dab][dF]L[Dab][Dab]T; lactam 5-C)
